# Measured values published in patent US20100227853A1, “INHIBITORS OF CYCLIC AMP PHOSPHODIESTERASES” (Trustees of Boston College, priority 2008, published 2010).
# Assays:
# [1] = molecular target: PDE4D (Homo sapiens, UniProt Q08499); test: in vitro enzyme assay PDE4D (Table 7); type: biochemical; settings: 2 micromolar compound; for remaining activity at 2 µM: read-out: percent of PDE activity present, PDE4D
# [2] = molecular target: T1, PDE7A (Homo sapiens, UniProt Q13946); test: in vitro enzyme assay PDE7A; type: biochemical; set-up: made in house; host or cells: E. coli; settings: 2 micromolar compound; for remaining activity at 2 µM: read-out: percent of PDE activity present, PDE7A
# [3] = molecular target: PDE4B (Homo sapiens, UniProt Q07343); test: in vitro enzyme assay PDE4B (Table 7); type: biochemical; settings: 2 micromolar compound; for remaining activity at 2 µM: read-out: percent of PDE activity present, PDE4B
# [4] = molecular target: PDE4A (Homo sapiens, UniProt P27815); test: in vitro enzyme assay PDE4A (Table 7); type: biochemical; settings: 2 micromolar compound; for remaining activity at 2 µM: read-out: percent of PDE activity present, PDE4A
# [5] = molecular target: T1, PDE7A; test: 5FOA growth assay in fission yeast strain expressing PDE7A; type: cell-based; set-up: targets used in the assays are full-length proteins (as opposed to simply the catalytic domain); expressed in transfected cells; host or cells: Schizosaccharomyces pombe, PDE gene integrated in place of cgs2; settings: unit not given
# Procedure: PDE inhibition allows growth in 5FOA medium as measured by optical density after 48 hours incubation at 30° C. Compound BC12 and six structural analogs were tested for growth stimulation.
# Cells were pregrown in EMM medium [MP Biomedicals (Solon, Ohio), 3% glucose, filter-sterilized to avoid carmelization, which would introduce variability into the optical density of the medium] containing from 0 mM to 2.5 mM cAMP (or either 0.5 mM or 1.0 mM cGMP). This was to repress expression of the fbp1-ura4 reporter prior to exposure of cells to 5FOA medium. Cells were grown at 30° C. to exponential phase (approximately 10^7 cells/ml). Cells were collected by centrifugation and resuspended in 5FOA medium, and 25 μl were transferred to 384-well microtiter dishes (untreated, with flat clear bottoms) that had been pre-filled with 25 μl 5FOA medium and pre-pinned with 100 nl of compounds (stock solutions were generally 10 mM). Starting cell concentrations ranged from 0.5×10^5 to 4×10^5 cells/ml depending on the screening strain. […] Other positive control dishes contained 5 mM cAMP in the 5FOA medium for PDEs that lack appropriate control compounds. Cultures were grown for 48 hours at 30° C., sealed in an airtight container with moist paper towels to prevent evaporation. Optical densities (OD600) of cultures were measured using a microplate reader. Bioinformatic analysis of the results to determine composite Z scores was performed as previously described (1, 3).
# [6] = tested on: PDE4A, PDE4B, PDE4D, PDE7A, PDE7B, PDE8A, PDE3A; test: Summary of PDE inhibitor profile; set-up: key to PDE inhibitor profile (Table 17): (1): Strong PDE4A, PDE4B inhibitor; (2): Strong PDE4A inhibitor; (3): Strong PDE4B, moderate PDE4A inhibitor; (4): Moderate PDE4A, PDE4B inhibitor; (5): Moderate PDE4B inhibitor; key to inhibitor class, Table 16: (1): Weak PDE7A inhibitor; (2): Strong PDE7A inhibitor; (3): Lillte/no activity under conditions used; (4): Weak PDE4A inhibitor
# [7] = tested on: U937 cells; test: TNF alpha release by LPS-treated U937 cells; type: cell-based; settings: for TNF alpha, % vehicle control: 10 uM cmpd, 0 uM BC30
# [8] = molecular target: T2, PDE4B3 (Mus musculus, UniProt Q8VBU5); test: 5FOA growth assay in fission yeast strain expressing PDE4B3; type: cell-based, Murine; settings: 20 uM
# T2 construct: targets used in the assays are full-length proteins (as opposed to simply the catalytic domain); expressed in transfected cells; host or cells: Schizosaccharomyces pombe, PDE gene integrated in place of cgs2
# T2 sequence (Q8VBU5 1-721): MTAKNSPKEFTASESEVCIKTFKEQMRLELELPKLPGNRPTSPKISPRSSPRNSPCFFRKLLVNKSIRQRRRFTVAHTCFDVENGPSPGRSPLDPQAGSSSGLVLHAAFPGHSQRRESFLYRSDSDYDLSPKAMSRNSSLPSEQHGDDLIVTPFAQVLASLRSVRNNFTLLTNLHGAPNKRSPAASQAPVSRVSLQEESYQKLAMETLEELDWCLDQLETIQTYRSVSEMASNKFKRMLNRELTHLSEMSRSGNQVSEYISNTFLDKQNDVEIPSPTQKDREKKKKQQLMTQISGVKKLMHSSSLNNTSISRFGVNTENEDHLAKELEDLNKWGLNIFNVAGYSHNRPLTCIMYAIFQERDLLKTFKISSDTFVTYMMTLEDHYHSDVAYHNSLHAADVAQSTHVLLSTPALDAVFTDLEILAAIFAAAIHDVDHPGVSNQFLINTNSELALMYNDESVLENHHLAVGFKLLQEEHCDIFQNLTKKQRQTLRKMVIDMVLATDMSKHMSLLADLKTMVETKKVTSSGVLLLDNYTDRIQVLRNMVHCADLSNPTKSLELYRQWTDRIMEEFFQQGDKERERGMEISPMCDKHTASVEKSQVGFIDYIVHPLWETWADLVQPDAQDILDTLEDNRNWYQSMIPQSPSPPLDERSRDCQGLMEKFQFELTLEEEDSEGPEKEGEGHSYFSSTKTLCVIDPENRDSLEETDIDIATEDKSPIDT
# How it was run: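 Readout is OD600 after 48 h at 30° C in 5FOA medium, starting from 0.5–4×10^5 cells/ml; 5 mM cAMP served as positive control. Yeast expressing mouse PDE4A1 or PDE4B3 with an fbp1-ura4 reporter was first grown to exponential phase in EMM plus 0.5–2.5 mM cAMP. Hits were scored by composite Z scores.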
# T1 sequence (Q13946 whole entry): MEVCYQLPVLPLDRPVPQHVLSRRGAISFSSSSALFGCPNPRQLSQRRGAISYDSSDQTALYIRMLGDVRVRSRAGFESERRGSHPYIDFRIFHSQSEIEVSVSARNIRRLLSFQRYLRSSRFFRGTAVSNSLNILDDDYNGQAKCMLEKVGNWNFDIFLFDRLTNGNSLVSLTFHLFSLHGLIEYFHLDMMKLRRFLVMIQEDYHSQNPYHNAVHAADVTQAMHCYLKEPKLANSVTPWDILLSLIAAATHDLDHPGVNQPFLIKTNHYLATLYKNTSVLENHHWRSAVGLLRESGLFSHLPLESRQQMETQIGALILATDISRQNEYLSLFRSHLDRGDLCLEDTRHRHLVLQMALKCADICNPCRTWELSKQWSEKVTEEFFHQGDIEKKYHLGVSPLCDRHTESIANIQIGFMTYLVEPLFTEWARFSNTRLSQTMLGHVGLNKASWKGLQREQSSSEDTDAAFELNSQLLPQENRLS
# PDE4D, sequence (Q08499 whole entry): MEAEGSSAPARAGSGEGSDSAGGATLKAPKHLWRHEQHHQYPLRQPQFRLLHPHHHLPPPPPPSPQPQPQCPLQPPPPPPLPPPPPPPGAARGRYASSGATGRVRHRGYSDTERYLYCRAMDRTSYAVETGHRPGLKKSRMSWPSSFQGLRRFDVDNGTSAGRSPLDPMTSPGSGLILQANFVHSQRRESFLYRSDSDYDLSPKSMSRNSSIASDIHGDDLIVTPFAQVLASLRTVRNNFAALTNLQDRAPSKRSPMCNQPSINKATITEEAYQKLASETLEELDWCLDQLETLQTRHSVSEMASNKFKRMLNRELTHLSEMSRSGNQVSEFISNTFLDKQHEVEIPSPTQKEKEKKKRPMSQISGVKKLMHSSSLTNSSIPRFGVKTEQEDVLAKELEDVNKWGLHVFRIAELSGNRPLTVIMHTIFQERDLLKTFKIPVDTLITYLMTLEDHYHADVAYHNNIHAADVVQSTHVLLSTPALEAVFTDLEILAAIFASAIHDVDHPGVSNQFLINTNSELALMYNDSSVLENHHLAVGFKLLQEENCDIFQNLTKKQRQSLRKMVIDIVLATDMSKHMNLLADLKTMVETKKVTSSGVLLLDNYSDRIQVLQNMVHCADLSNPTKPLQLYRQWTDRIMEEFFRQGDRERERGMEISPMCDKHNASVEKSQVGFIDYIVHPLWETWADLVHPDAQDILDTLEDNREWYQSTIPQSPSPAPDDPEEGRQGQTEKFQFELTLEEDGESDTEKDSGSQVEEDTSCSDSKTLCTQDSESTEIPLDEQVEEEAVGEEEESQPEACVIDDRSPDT
# PDE4A, sequence (P27815 whole entry, species assumed, the tested form may be a part): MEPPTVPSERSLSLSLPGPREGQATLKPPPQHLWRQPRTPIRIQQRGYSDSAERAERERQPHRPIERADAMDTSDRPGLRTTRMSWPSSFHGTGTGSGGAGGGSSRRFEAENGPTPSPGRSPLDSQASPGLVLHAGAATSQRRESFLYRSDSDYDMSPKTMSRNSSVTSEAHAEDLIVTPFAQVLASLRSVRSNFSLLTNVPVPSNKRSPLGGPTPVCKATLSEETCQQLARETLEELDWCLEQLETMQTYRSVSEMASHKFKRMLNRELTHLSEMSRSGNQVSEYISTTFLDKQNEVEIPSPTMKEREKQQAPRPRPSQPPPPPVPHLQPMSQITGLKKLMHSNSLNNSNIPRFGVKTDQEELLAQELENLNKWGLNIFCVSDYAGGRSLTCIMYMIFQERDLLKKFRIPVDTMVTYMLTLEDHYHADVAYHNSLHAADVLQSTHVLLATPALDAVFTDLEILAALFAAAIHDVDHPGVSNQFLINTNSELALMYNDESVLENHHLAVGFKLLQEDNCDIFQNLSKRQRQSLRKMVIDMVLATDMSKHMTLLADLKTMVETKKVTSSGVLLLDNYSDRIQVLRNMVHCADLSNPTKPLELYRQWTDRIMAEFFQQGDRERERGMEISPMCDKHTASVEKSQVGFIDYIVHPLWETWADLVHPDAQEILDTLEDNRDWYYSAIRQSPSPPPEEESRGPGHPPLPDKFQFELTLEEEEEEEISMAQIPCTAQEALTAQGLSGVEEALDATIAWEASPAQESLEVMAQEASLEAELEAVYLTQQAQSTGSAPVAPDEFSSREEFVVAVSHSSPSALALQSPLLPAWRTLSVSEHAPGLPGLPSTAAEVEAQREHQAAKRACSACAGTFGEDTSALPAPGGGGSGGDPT
# PDE4B, sequence (Q07343 whole entry, species assumed): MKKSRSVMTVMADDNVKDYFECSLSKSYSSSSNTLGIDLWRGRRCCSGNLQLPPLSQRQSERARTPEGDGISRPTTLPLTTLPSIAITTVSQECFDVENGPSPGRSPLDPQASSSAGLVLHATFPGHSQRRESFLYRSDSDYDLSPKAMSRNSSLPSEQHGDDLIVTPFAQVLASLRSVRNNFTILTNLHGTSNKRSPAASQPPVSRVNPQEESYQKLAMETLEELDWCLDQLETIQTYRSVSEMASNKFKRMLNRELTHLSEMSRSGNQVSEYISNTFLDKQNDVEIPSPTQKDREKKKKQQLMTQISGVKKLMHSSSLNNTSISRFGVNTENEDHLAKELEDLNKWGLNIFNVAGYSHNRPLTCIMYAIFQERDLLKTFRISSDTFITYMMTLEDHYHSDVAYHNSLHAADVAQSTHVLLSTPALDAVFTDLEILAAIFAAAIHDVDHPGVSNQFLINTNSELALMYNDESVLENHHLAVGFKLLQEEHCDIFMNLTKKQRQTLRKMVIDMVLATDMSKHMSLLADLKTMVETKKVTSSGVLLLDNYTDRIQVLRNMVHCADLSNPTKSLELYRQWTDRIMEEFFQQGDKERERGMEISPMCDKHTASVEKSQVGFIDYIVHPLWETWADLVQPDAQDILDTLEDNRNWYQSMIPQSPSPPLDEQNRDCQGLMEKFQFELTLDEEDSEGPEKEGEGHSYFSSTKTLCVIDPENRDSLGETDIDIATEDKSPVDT
remaining activity at 2 µM [1] [%],remaining activity at 2 µM [2] [%],remaining activity at 2 µM [3] [%],remaining activity at 2 µM [4] [%],"ED50, 7A [5]",Compound,"inhibitor class, Table 16 [6]",further results
54,74,47,26,,Cc1nc(N2CCCCC2C)c2c(C)c(C(=O)Nc3ccc(F)cc3F)sc2n1 (stereo not shown) [Compound 58-4],,
,,,,,CCN(CC)c1nc(C)nc2sc(C(=O)Nc3ccc(F)cc3F)c(C)c12 [Compound 58-8],,"percent of PDE activity present, PDE4D [1]: 76%; percent of PDE activity present, PDE7A [2]: 48%; percent of PDE activity present, PDE4B [3]: 56%; percent of PDE activity present, PDE4A [4]: 84%"
68,90,46,69,,Cc1nc(N2CCC(C)CC2)c2c(C)c(C(=O)Nc3c(F)cc(F)cc3Br)sc2n1 [Compound 58-5],,
30,88,39,26,,Cc1nc(N2CCOCC2)c2c(C)c(C(=O)Nc3ccc(F)cc3F)sc2n1 [Compound 58-2],,
,,,,ND ND weak activity ND ND,CC(C)(C)c1c(C#N)sc2sc(C#N)c(N)c12 [Compound 30-4],Maybridge: KM03484 30-4 (3),
90,98,64,84,,Cc1c(C(=O)Nc2ccc(F)cc2F)sc2ncnc(N3CCN(C)CC3)c12 [Compound 58-1],,
,,,,,CC(C)n1c2ccc(Cl)cc2c2nc3ccccc3nc21 [Compound 35],,"TNF ([7]; 3 HOURS): 4383 pg/mL; TNF, % EtOH cntrl ([7]; 3 HOURS): 90.7%; TNF ([7]; 20 HOURS): 11728 pg/mL; TNF, % EtOH cntrl ([7]; 20 HOURS): 85.7%; TNF alpha, % vehicle control ([7]; after 3 h.): 95.8%; TNF alpha, % vehicle control ([7]; after 20 h.): 66.1%; PDE inhibitor profile (Table 17) ([6]; overall classification, Table 17 footnotes): 35 (1)"
,,,,,Cc1ccc([N+](=O)[O-])cc1S(=O)(=O)N(C)C [BRL],,"TNF alpha (EtoH = 100.0) ([7]; 3 HOURS): 92.5; TNF ([7]; 3 HOURS, high BRL): 4565 pg/mL; TNF, % EtOH cntrl ([7]; 3 HOURS, high BRL): 94.5%; TNF ([7]; 3 HOURS, low BRL): 4491 pg/mL; TNF, % EtOH cntrl ([7]; 3 HOURS, low BRL): 93.0%; TNF alpha (EtoH = 100.0) ([7]; 20 HOURS): 102.6; TNF ([7]; 20 HOURS, high BRL): 13111 pg/mL; TNF, % EtOH cntrl ([7]; 20 HOURS, high BRL): 95.8%; TNF ([7]; 20 HOURS, low BRL): 12718 pg/mL; TNF, % EtOH cntrl ([7]; 20 HOURS, low BRL): 92.9%"
,,,,ND ND inactive ND ND,N#Cc1sc2sc(C#N)c(-c3ccc(Cl)cc3)c2c1N [Compound 30-3],"554, N12 KM03474 30-3 (3)",1 Assay (20 uM) 4B3 [8]: 1.462 ND ND ND ND
68,,61,73,,CCN(CC)c1nc(C)nc2sc(C(=O)Nc3ccc(F)cc3F)c(C)c12 [Compound 58-6],,"percent of PDE activity present, PDE7A [2]: 75%"
,,,,ND ND active/plateaus ND ND,N#Cc1sc2sc(C#N)c(-c3cccs3)c2c1N [Compound 30-2],"1441, G04 KM03473 30-2 (1)",1 Assay (20 uM) 4B3 [8]: −0.3999 ND ND ND ND
,,,,ND ND inactive ND ND,CCOC(=O)c1sc2sc(C(=O)OCC)c(-c3ccco3)c2c1N [Compound 30-1],"1441, C04 KM03459 30-1 (4)",1 Assay (20 uM) 4B3 [8]: 8.4406 ND ND ND ND
